Data published in the RepoRT retention time repository (doi:10.1016/j.chroma.2022.462867).

Assay: HILIC, Phenomenex Kinetex HILIC, 150 × 3 mm, 2.6 µm, 40 °C, 0.35 mL/min, estimated dead time 1.9 min; A: water + 0.1% formic acid, pH 3; B: methanol; gradient (min/%B) 0/95 20/0 25/0 30/95
Conditions: stereoisomer not certain

Question: Which LC retention time does the source give for `Cc1ccc(S(=O)(=O)N(C)N=O)cc1` [N-Methyl-N-nitrosotoluene-4-sulphonamide] here?
Answer: 2.38 min

Question: Which LC retention time does the source give for `CN(C)CC(c1ccc(O)cc1)C1(O)CCCCC1` (stereo unspecified) [O-Desmethylvenlafaxine] here?
Answer: 4.13 min

Question: With `CN1C(=O)CCC1c1cccnc1` (stereo unspecified) [Cotinine] as the compound, how does the LC retention time read?
Answer: 3.02 min

Question: Which LC retention time does the source give for `CC(C)(C)C(=O)C(Oc1ccc(Cl)cc1)n1ccnc1` (stereo unspecified) [Climbazole] here?
Answer: 2.73 min

Question: For `CC(=O)N1CCN(c2ccc(OCC3COC(Cn4ccnc4)(c4ccc(Cl)cc4Cl)O3)cc2)CC1` (stereo unspecified) [Ketoconazole], which LC retention time is on record?
Answer: 4.05 min

Question: For `CN1CC(=O)NC1=N` [Creatinine], which LC retention time is on record?
Answer: 4 min

Question: Which LC retention time does the source give for `O=C(CCCN1CCC(O)(c2ccc(Cl)cc2)CC1)c1ccc(F)cc1` [Haloperidol] here?
Answer: 3.41 min

Question: Which LC retention time does the source give for `CCN=C1NC(NC(C)C)=NC(OC)N1` (stereo unspecified) [Atraton] here?
Answer: 2.68 min

Question: For `C=CCOC(Cn1ccnc1)c1ccc(Cl)cc1Cl` (stereo unspecified) [Imazalil], which LC retention time is on record?
Answer: 3.65 min

Question: With `O=C(NCC1CCCCN1)c1cc(OCC(F)(F)F)ccc1OCC(F)(F)F` (stereo unspecified) [Flecainide] as the compound, how does the LC retention time read?
Answer: 3.47 min

Question: For `CCN=C1NC(NC(C)C)=NC(SC)N1` (stereo unspecified) [Ametryn], which LC retention time is on record?
Answer: 2.32 min

Question: Which LC retention time does the source give for `NCC1(CC(=O)O)CCCCC1` [Gabapentin] here?
Answer: 3.33 min

Question: For `COC(=O)C1C2CC3c4[nH]c5cc(OC)ccc5c4CCN3CC2CC(OC(=O)c2cc(OC)c(OC)c(OC)c2)C1OC` (stereo unspecified) [Reserpine], which LC retention time is on record?
Answer: 3.31 min

Assay: RP, Phenomenex Kinetex EVO C18, 150 × 3 mm, 2.6 µm, 40 °C, 0.35 mL/min, estimated dead time 1.9 min; A: water + 0.1% formic acid, pH 3; B: methanol; gradient (min/%B) 0/5 20/100 25/100 30/5
Conditions: stereoisomer not certain

Question: For `Cc1ccc(S(=O)(=O)N(C)N=O)cc1` [N-Methyl-N-nitrosotoluene-4-sulphonamide], which LC retention time is on record?
Answer: 10.3 min

Question: Which LC retention time does the source give for `CN(C)CC(c1ccc(O)cc1)C1(O)CCCCC1` (stereo unspecified) [O-Desmethylvenlafaxine] here?
Answer: 5.49 min

Question: Which LC retention time does the source give for `CC(C)(C)C(=O)C(Oc1ccc(Cl)cc1)n1ccnc1` (stereo unspecified) [Climbazole] here?
Answer: 11.5 min

Question: For `CC(=O)N1CCN(c2ccc(OCC3COC(Cn4ccnc4)(c4ccc(Cl)cc4Cl)O3)cc2)CC1` (stereo unspecified) [Ketoconazole], which LC retention time is on record?
Answer: 11.2 min

Question: Which LC retention time does the source give for `O=C(CCCN1CCC(O)(c2ccc(Cl)cc2)CC1)c1ccc(F)cc1` [Haloperidol] here?
Answer: 9.88 min

Question: With `CCN=C1NC(NC(C)C)=NC(OC)N1` (stereo unspecified) [Atraton] as the compound, how does the LC retention time read?
Answer: 8.8 min

Question: With `C=CCOC(Cn1ccnc1)c1ccc(Cl)cc1Cl` (stereo unspecified) [Imazalil] as the compound, how does the LC retention time read?
Answer: 10.4 min

Question: Which LC retention time does the source give for `O=C(NCC1CCCCN1)c1cc(OCC(F)(F)F)ccc1OCC(F)(F)F` (stereo unspecified) [Flecainide] here?
Answer: 9.18 min

Question: Which LC retention time does the source give for `Cn1c(=O)c2[nH]cnc2n(C)c1=O` [Theophylline] here?
Answer: 5.29 min

Question: Which LC retention time does the source give for `COC(=O)C1CCCCC1S(=O)(=O)NC(=O)NC1=NC(OC)NC(C)N1` (stereo unspecified) [Metsulfuron-methyl] here?
Answer: 12.2 min

Question: Which LC retention time does the source give for `Cc1cccc(C)c1N(Cn1cccn1)C(=O)CCl` [Metazachlor] here?
Answer: 13.7 min

Question: For `NCC1(CC(=O)O)CCCCC1` [Gabapentin], which LC retention time is on record?
Answer: 4.04 min

Question: For `Nc1ccc(Cl)cc1` [4-Chloroaniline], which LC retention time is on record?
Answer: 5.28 min

Question: With `NS(=O)(=O)c1cc(C2(O)NC(=O)c3ccccc32)ccc1Cl` (stereo unspecified) [Chlorthalidone] as the compound, how does the LC retention time read?
Answer: 9.19 min

Question: Which LC retention time does the source give for `O=P(Oc1ccccc1)(Oc1ccccc1)Oc1ccccc1` [Triphenylphosphate] here?
Answer: 17.2 min

Question: For `Oc1ccc2ccccc2c1N=Nc1ccccc1` [Sudan I], which LC retention time is on record?
Answer: 19.4 min

Question: Which LC retention time does the source give for `COC(=O)C1C2CC3c4[nH]c5cc(OC)ccc5c4CCN3CC2CC(OC(=O)c2cc(OC)c(OC)c(OC)c2)C1OC` (stereo unspecified) [Reserpine] here?
Answer: 11.5 min

Question: Which LC retention time does the source give for `CC(=O)C1CCC2C3CCC4=CC(=O)CCC4(C)C3CCC12C` (stereo unspecified) [Progesterone] here?
Answer: 16.9 min

Question: Which LC retention time does the source give for `CCCCC1=NC2(CCCC2)C(=O)N1Cc1ccc(-c2ccccc2-c2nn[nH]n2)cc1` [Irbesartan] here?
Answer: 14.5 min

Question: Which LC retention time does the source give for `CN(C)C(=O)Nc1ccc(Cl)cc1` [Monuron] here?
Answer: 11.5 min

Question: With `CC12CCC3c4ccc(O)cc4CCC3C1CCC2=O` (stereo unspecified) [Estrone] as the compound, how does the LC retention time read?
Answer: 15.1 min

Question: For `c1ccc2c(c1)[nH]c1ccccc12` [Carbazole], which LC retention time is on record?
Answer: 15.5 min

Assay: RP, Phenomenex Kinetex PS C18, 150 × 3 mm, 2.6 µm, 40 °C, 0.35 mL/min, estimated dead time 1.9 min; A: water + 5 mM ammonium acetate, pH 5; B: methanol; gradient (min/%B) 0/5 20/100 25/100 30/5
Conditions: stereoisomer not certain

Question: For `Cc1ccc(S(=O)(=O)N(C)N=O)cc1` [N-Methyl-N-nitrosotoluene-4-sulphonamide], which LC retention time is on record?
Answer: 13.9 min

Question: With `CN(C)CC(c1ccc(O)cc1)C1(O)CCCCC1` (stereo unspecified) [O-Desmethylvenlafaxine] as the compound, how does the LC retention time read?
Answer: 9.2 min

Question: For `CN1C(=O)CCC1c1cccnc1` (stereo unspecified) [Cotinine], which LC retention time is on record?
Answer: 7.52 min

Question: Which LC retention time does the source give for `CC(C)(C)C(=O)C(Oc1ccc(Cl)cc1)n1ccnc1` (stereo unspecified) [Climbazole] here?
Answer: 16.2 min

Question: Which LC retention time does the source give for `CC(=O)N1CCN(c2ccc(OCC3COC(Cn4ccnc4)(c4ccc(Cl)cc4Cl)O3)cc2)CC1` (stereo unspecified) [Ketoconazole] here?
Answer: 17.6 min

Question: Which LC retention time does the source give for `O=C(CCCN1CCC(O)(c2ccc(Cl)cc2)CC1)c1ccc(F)cc1` [Haloperidol] here?
Answer: 13.7 min

Question: For `CCN=C1NC(NC(C)C)=NC(OC)N1` (stereo unspecified) [Atraton], which LC retention time is on record?
Answer: 13.7 min

Question: For `C=CCOC(Cn1ccnc1)c1ccc(Cl)cc1Cl` (stereo unspecified) [Imazalil], which LC retention time is on record?
Answer: 17.1 min

Question: Which LC retention time does the source give for `O=C(NCC1CCCCN1)c1cc(OCC(F)(F)F)ccc1OCC(F)(F)F` (stereo unspecified) [Flecainide] here?
Answer: 12.8 min

Question: For `Cn1c(=O)c2[nH]cnc2n(C)c1=O` [Theophylline], which LC retention time is on record?
Answer: 6.79 min

Question: Which LC retention time does the source give for `COC(=O)C1CCCCC1S(=O)(=O)NC(=O)NC1=NC(OC)NC(C)N1` (stereo unspecified) [Metsulfuron-methyl] here?
Answer: 9.47 min

Question: For `CCN=C1NC(NC(C)C)=NC(SC)N1` (stereo unspecified) [Ametryn], which LC retention time is on record?
Answer: 15.1 min

Question: Which LC retention time does the source give for `Cc1cccc(C)c1N(Cn1cccn1)C(=O)CCl` [Metazachlor] here?
Answer: 14.1 min

Question: With `NCC1(CC(=O)O)CCCCC1` [Gabapentin] as the compound, how does the LC retention time read?
Answer: 5.49 min

Question: For `Nc1ccc(Cl)cc1` [4-Chloroaniline], which LC retention time is on record?
Answer: 10.3 min

Question: For `NS(=O)(=O)c1cc(C2(O)NC(=O)c3ccccc32)ccc1Cl` (stereo unspecified) [Chlorthalidone], which LC retention time is on record?
Answer: 9.81 min

Question: With `O=P(Oc1ccccc1)(Oc1ccccc1)Oc1ccccc1` [Triphenylphosphate] as the compound, how does the LC retention time read?
Answer: 17.3 min

Question: For `Oc1ccc2ccccc2c1N=Nc1ccccc1` [Sudan I], which LC retention time is on record?
Answer: 19.2 min

Question: With `COC(=O)C1C2CC3c4[nH]c5cc(OC)ccc5c4CCN3CC2CC(OC(=O)c2cc(OC)c(OC)c(OC)c2)C1OC` (stereo unspecified) [Reserpine] as the compound, how does the LC retention time read?
Answer: 17.1 min

Question: Which LC retention time does the source give for `CC(=O)C1CCC2C3CCC4=CC(=O)CCC4(C)C3CCC12C` (stereo unspecified) [Progesterone] here?
Answer: 17.8 min

Question: For `CCCCC1=NC2(CCCC2)C(=O)N1Cc1ccc(-c2ccccc2-c2nn[nH]n2)cc1` [Irbesartan], which LC retention time is on record?
Answer: 14.6 min

Question: Which LC retention time does the source give for `CN(C)C(=O)Nc1ccc(Cl)cc1` [Monuron] here?
Answer: 11.9 min

Question: With `CC12CCC3c4ccc(O)cc4CCC3C1CCC2=O` (stereo unspecified) [Estrone] as the compound, how does the LC retention time read?
Answer: 15.7 min

Question: Which LC retention time does the source give for `c1ccc2c(c1)[nH]c1ccccc12` [Carbazole] here?
Answer: 15.1 min

Assay: RP, Phenomenex Kinetex EVO C18, 150 × 3 mm, 2.6 µm, 40 °C, 0.35 mL/min, estimated dead time 1.9 min; A: water + 5 mM ammonium formate, pH 5; B: acetonitrile; gradient (min/%B) 0/5 20/100 25/100 30/5
Conditions: stereoisomer not certain

Question: With `Cc1ccc(S(=O)(=O)N(C)N=O)cc1` [N-Methyl-N-nitrosotoluene-4-sulphonamide] as the compound, how does the LC retention time read?
Answer: 9.88 min

Question: With `CN(C)CC(c1ccc(O)cc1)C1(O)CCCCC1` (stereo unspecified) [O-Desmethylvenlafaxine] as the compound, how does the LC retention time read?
Answer: 6.48 min

Question: For `CN1C(=O)CCC1c1cccnc1` (stereo unspecified) [Cotinine], which LC retention time is on record?
Answer: 3.66 min

Question: With `CC(=O)N1CCN(c2ccc(OCC3COC(Cn4ccnc4)(c4ccc(Cl)cc4Cl)O3)cc2)CC1` (stereo unspecified) [Ketoconazole] as the compound, how does the LC retention time read?
Answer: 12.2 min

Question: With `O=C(CCCN1CCC(O)(c2ccc(Cl)cc2)CC1)c1ccc(F)cc1` [Haloperidol] as the compound, how does the LC retention time read?
Answer: 12.3 min

Question: With `C=CCOC(Cn1ccnc1)c1ccc(Cl)cc1Cl` (stereo unspecified) [Imazalil] as the compound, how does the LC retention time read?
Answer: 12.9 min

Question: For `O=C(NCC1CCCCN1)c1cc(OCC(F)(F)F)ccc1OCC(F)(F)F` (stereo unspecified) [Flecainide], which LC retention time is on record?
Answer: 11.5 min

Question: With `Cn1c(=O)c2[nH]cnc2n(C)c1=O` [Theophylline] as the compound, how does the LC retention time read?
Answer: 3.27 min

Question: For `COC(=O)C1CCCCC1S(=O)(=O)NC(=O)NC1=NC(OC)NC(C)N1` (stereo unspecified) [Metsulfuron-methyl], which LC retention time is on record?
Answer: 5.28 min

Question: Which LC retention time does the source give for `CCN=C1NC(NC(C)C)=NC(SC)N1` (stereo unspecified) [Ametryn] here?
Answer: 11.3 min

Question: For `Cc1cccc(C)c1N(Cn1cccn1)C(=O)CCl` [Metazachlor], which LC retention time is on record?
Answer: 10.6 min

Question: Which LC retention time does the source give for `NCC1(CC(=O)O)CCCCC1` [Gabapentin] here?
Answer: 2.95 min

Question: With `Nc1ccc(Cl)cc1` [4-Chloroaniline] as the compound, how does the LC retention time read?
Answer: 8.88 min

Question: With `NS(=O)(=O)c1cc(C2(O)NC(=O)c3ccccc32)ccc1Cl` (stereo unspecified) [Chlorthalidone] as the compound, how does the LC retention time read?
Answer: 6.87 min

Question: For `O=P(Oc1ccccc1)(Oc1ccccc1)Oc1ccccc1` [Triphenylphosphate], which LC retention time is on record?
Answer: 13.8 min

Question: For `Oc1ccc2ccccc2c1N=Nc1ccccc1` [Sudan I], which LC retention time is on record?
Answer: 15.2 min

Question: For `COC(=O)C1C2CC3c4[nH]c5cc(OC)ccc5c4CCN3CC2CC(OC(=O)c2cc(OC)c(OC)c(OC)c2)C1OC` (stereo unspecified) [Reserpine], which LC retention time is on record?
Answer: 13.3 min

Question: Which LC retention time does the source give for `CC(=O)C1CCC2C3CCC4=CC(=O)CCC4(C)C3CCC12C` (stereo unspecified) [Progesterone] here?
Answer: 13.3 min

Question: With `CCCCC1=NC2(CCCC2)C(=O)N1Cc1ccc(-c2ccccc2-c2nn[nH]n2)cc1` [Irbesartan] as the compound, how does the LC retention time read?
Answer: 9.45 min

Question: Which LC retention time does the source give for `CN(C)C(=O)Nc1ccc(Cl)cc1` [Monuron] here?
Answer: 8.56 min

Question: Which LC retention time does the source give for `CC12CCC3c4ccc(O)cc4CCC3C1CCC2=O` (stereo unspecified) [Estrone] here?
Answer: 11.7 min

Question: With `c1ccc2c(c1)[nH]c1ccccc12` [Carbazole] as the compound, how does the LC retention time read?
Answer: 12.5 min
